From PubChem BioAssay (NCI)
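All cell lines were grown in 96-well plates and treated with compound for 48 hours. GI50 marks 50% less growth. At the TGI there is no net growth.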

Columns and labels:
Experiment in all cases: growth of human tumour cells (NCI), 48 h
HOP-92 NSCLC = system: HOP-92 NSCLC
MALME-3M melanoma = system: MALME-3M melanoma
UO-31 renal = system: UO-31 renal
OVCAR-3 ovarian = system: OVCAR-3 ovarian
SNB-75 CNS = system: SNB-75 CNS
SK-MEL-5 melanoma = system: SK-MEL-5 melanoma
U251 CNS = system: U251 CNS
OVCAR-8 ovarian = system: OVCAR-8 ovarian
NCI-H23 lung = system: NCI-H23 lung
IGROV1 ovarian = system: IGROV1 ovarian
HT29 colon = system: HT29 colon
NCI-H460 lung = system: NCI-H460 lung
RXF 393 renal = system: RXF 393 renal
HCT-15 colon = system: HCT-15 colon
OVCAR-5 ovarian = system: OVCAR-5 ovarian
RPMI-8226 leukemia = system: RPMI-8226 leukemia
LOX IMVI melanoma = system: LOX IMVI melanoma
MDA-MB-435 = system: MDA-MB-435
BT-549 breast = system: BT-549 breast
SK-MEL-28 melanoma = system: SK-MEL-28 melanoma
T-47D breast = system: T-47D breast
MCF7 breast = system: MCF7 breast
SW-620 colon = system: SW-620 colon
SR leukemia = system: SR leukemia
M14 melanoma = system: M14 melanoma
CAKI-1 renal = system: CAKI-1 renal
K-562 leukemia = system: K-562 leukemia
SN12C renal = system: SN12C renal
786-0 renal = system: 786-0 renal
NCI-H522 lung = system: NCI-H522 lung
PC-3 prostate = system: PC-3 prostate
SF-539 CNS = system: SF-539 CNS
HS 578T breast = system: HS 578T breast
KM12 colon = system: KM12 colon
MDA-MB-231 breast = system: MDA-MB-231 breast
HL-60(TB) leukemia = system: HL-60(TB) leukemia
A498 renal = system: A498 renal
UACC-257 melanoma = system: UACC-257 melanoma
SF-268 CNS = system: SF-268 CNS
NCI-H226 lung = system: NCI-H226 lung
A549 NSCLC = system: A549 NSCLC
COLO 205 colon = system: COLO 205 colon
HOP-62 NSCLC = system: HOP-62 NSCLC
UACC-62 melanoma = system: UACC-62 melanoma
OVCAR-4 ovarian = system: OVCAR-4 ovarian
SF-295 CNS = system: SF-295 CNS
SNB-19 CNS = system: SNB-19 CNS
ACHN renal = system: ACHN renal
HCT-116 colon = system: HCT-116 colon
DU-145 prostate = system: DU-145 prostate
MOLT-4 leukemia = system: MOLT-4 leukemia
CCRF-CEM leukemia = system: CCRF-CEM leukemia
MDA-MB-468 breast = system: MDA-MB-468 breast
SK-OV-3 ovarian = system: SK-OV-3 ovarian
HCC-2998 colon = system: HCC-2998 colon
SK-MEL-2 melanoma = system: SK-MEL-2 melanoma
TK-10 renal = system: TK-10 renal
EKVX NSCLC = system: EKVX NSCLC
NCI/ADR-RES ovarian = system: NCI/ADR-RES ovarian

`CC1=C(c2cc(-c3ccc(Cl)cc3)c(C#N)c(N)n2)C(c2ccccc2)NC(=S)N1` (configuration not stated) showed a GI50 (HOP-92 NSCLC) of 19.1 µM, a TGI (HOP-92 NSCLC) of 62.7 µM and a GI50 (MALME-3M melanoma) of 14 µM. For the same compound, the TGI (MALME-3M melanoma) was 32.1 µM, the GI50 (UO-31 renal) was 13.3 µM and the TGI (UO-31 renal) was 26.3 µM. For the same compound, the GI50 (OVCAR-3 ovarian) was 13.8 µM, the TGI (OVCAR-3 ovarian) was 47.4 µM and the GI50 (SNB-75 CNS) was 7.01 µM. The TGI (SNB-75 CNS) was 47 µM, the GI50 (SK-MEL-5 melanoma) was 6.62 µM and the TGI (SK-MEL-5 melanoma) was 20.1 µM. For the same compound, the GI50 (U251 CNS) was 12.5 µM, the TGI (U251 CNS) was 28.1 µM and the GI50 (OVCAR-8 ovarian) was 20 µM. The TGI (OVCAR-8 ovarian) was greater than 86.4 µM, the GI50 (NCI-H23 lung) was 13.6 µM and the TGI (NCI-H23 lung) was 29.6 µM. For the same compound, the GI50 (IGROV1 ovarian) was 17.2 µM, the TGI (IGROV1 ovarian) was 36.4 µM and the GI50 (HT29 colon) was 12.2 µM. It also gave a TGI (HT29 colon) of 27.6 µM, a GI50 (NCI-H460 lung) of 20.3 µM and a TGI (NCI-H460 lung) of 53.8 µM. It also gave a GI50 (RXF 393 renal) of 11.6 µM, a TGI (RXF 393 renal) of 24.3 µM and a GI50 (HCT-15 colon) of 171 nM. For the same compound, the TGI (HCT-15 colon) was 18.2 µM, the GI50 (OVCAR-5 ovarian) was 17.8 µM and the TGI (OVCAR-5 ovarian) was 35.5 µM. The GI50 (RPMI-8226 leukemia) was 692 nM, the TGI (RPMI-8226 leukemia) was 34.1 µM and the GI50 (LOX IMVI melanoma) was 1340 nM. The TGI (LOX IMVI melanoma) was 14.4 µM, the GI50 (MDA-MB-435) was 7.44 µM and the TGI (MDA-MB-435) was 30.3 µM. The GI50 (BT-549 breast) was 14.1 µM, the TGI (BT-549 breast) was 29.5 µM and the GI50 (SK-MEL-28 melanoma) was 14.9 µM. The TGI (SK-MEL-28 melanoma) was 30 µM, the GI50 (T-47D breast) was 11.4 µM and the TGI (T-47D breast) was 47.5 µM. It also gave a GI50 (MCF7 breast) of 177 nM, a TGI (MCF7 breast) of 28.5 µM and a GI50 (SW-620 colon) of 11 µM. For the same compound, the TGI (SW-620 colon) was 32.5 µM, the GI50 (SR leukemia) was 84.2 nM and the TGI (SR leukemia) was greater than 48.7 µM. For the same compound, the GI50 (M14 melanoma) was 3.33 µM, the TGI (M14 melanoma) was 25.4 µM and the GI50 (CAKI-1 renal) was 16.5 µM. It also gave a TGI (CAKI-1 renal) of 43.9 µM, a GI50 (K-562 leukemia) of 277 nM and a TGI (K-562 leukemia) greater than 100 µM. It also gave a GI50 (SN12C renal) of 5.86 µM, a TGI (SN12C renal) of 21.6 µM and a GI50 (786-0 renal) of 16.3 µM. The TGI (786-0 renal) was 35.4 µM, the GI50 (NCI-H522 lung) was 14.7 µM and the TGI (NCI-H522 lung) was 29.5 µM. The GI50 (PC-3 prostate) was 11 µM, the TGI (PC-3 prostate) was 53.1 µM and the GI50 (SF-539 CNS) was 10.1 µM. It also gave a TGI (SF-539 CNS) of 23 µM, a GI50 (HS 578T breast) of 19.1 µM and a TGI (HS 578T breast) greater than 96.2 µM. For the same compound, the GI50 (KM12 colon) was 16.9 µM, the TGI (KM12 colon) was 35.5 µM and the GI50 (MDA-MB-231 breast) was 13.6 µM. The TGI (MDA-MB-231 breast) was 29.6 µM, the GI50 (HL-60(TB) leukemia) was 168 nM and the GI50 (A498 renal) was greater than 44.5 µM. It also gave a TGI (A498 renal) greater than 62.8 µM, a GI50 (UACC-257 melanoma) of 16.1 µM and a TGI (UACC-257 melanoma) of 38.8 µM. It also gave a GI50 (SF-268 CNS) of 17.6 µM, a TGI (SF-268 CNS) of 67.2 µM and a GI50 (NCI-H226 lung) of 15.8 µM. It also gave a TGI (NCI-H226 lung) of 44.6 µM, a GI50 (A549 NSCLC) of 48.8 µM and a TGI (A549 NSCLC) greater than 88 µM. It also gave a GI50 (COLO 205 colon) of 17 µM, a TGI (COLO 205 colon) of 33.5 µM and a GI50 (HOP-62 NSCLC) of 16 µM. For the same compound, the TGI (HOP-62 NSCLC) was 37 µM, the GI50 (UACC-62 melanoma) was 13.1 µM and the TGI (UACC-62 melanoma) was 26.9 µM. It also gave a GI50 (OVCAR-4 ovarian) of 28 µM, a TGI (OVCAR-4 ovarian) greater than 100 µM and a GI50 (SF-295 CNS) of 10.8 µM. It also gave a TGI (SF-295 CNS) of 24.4 µM, a GI50 (SNB-19 CNS) of 16.7 µM and a TGI (SNB-19 CNS) of 53.8 µM. The GI50 (ACHN renal) was 15.5 µM, the TGI (ACHN renal) was 30.9 µM and the GI50 (HCT-116 colon) was 147 nM. The TGI (HCT-116 colon) was 17.6 µM, the GI50 (DU-145 prostate) was 13.1 µM and the TGI (DU-145 prostate) was 29.3 µM. For the same compound, the GI50 (MOLT-4 leukemia) was 1370 nM, the TGI (MOLT-4 leukemia) was greater than 66.2 µM and the GI50 (CCRF-CEM leukemia) was 303 nM. For the same compound, the TGI (CCRF-CEM leukemia) was 16.9 µM, the GI50 (MDA-MB-468 breast) was 8.45 µM and the TGI (MDA-MB-468 breast) was 22.7 µM. For the same compound, the GI50 (SK-OV-3 ovarian) was 23.7 µM, the TGI (SK-OV-3 ovarian) was 67.9 µM and the GI50 (HCC-2998 colon) was 13.4 µM. The TGI (HCC-2998 colon) was 26.4 µM, the GI50 (SK-MEL-2 melanoma) was 17.5 µM and the TGI (SK-MEL-2 melanoma) was 34.2 µM. It also gave a GI50 (TK-10 renal) of 23.1 µM, a TGI (TK-10 renal) of 61 µM and a GI50 (EKVX NSCLC) of 16.4 µM. It also gave a TGI (EKVX NSCLC) of 42.6 µM, a GI50 (NCI/ADR-RES ovarian) of 671 nM and a TGI (NCI/ADR-RES ovarian) of 26.2 µM.
